Read-outs that look alike come from different tables or passages of the source.

One data set has as its target T1, CYP2C8 (Homo sapiens, UniProt P10632).
T1 sequence (P10632 1-490): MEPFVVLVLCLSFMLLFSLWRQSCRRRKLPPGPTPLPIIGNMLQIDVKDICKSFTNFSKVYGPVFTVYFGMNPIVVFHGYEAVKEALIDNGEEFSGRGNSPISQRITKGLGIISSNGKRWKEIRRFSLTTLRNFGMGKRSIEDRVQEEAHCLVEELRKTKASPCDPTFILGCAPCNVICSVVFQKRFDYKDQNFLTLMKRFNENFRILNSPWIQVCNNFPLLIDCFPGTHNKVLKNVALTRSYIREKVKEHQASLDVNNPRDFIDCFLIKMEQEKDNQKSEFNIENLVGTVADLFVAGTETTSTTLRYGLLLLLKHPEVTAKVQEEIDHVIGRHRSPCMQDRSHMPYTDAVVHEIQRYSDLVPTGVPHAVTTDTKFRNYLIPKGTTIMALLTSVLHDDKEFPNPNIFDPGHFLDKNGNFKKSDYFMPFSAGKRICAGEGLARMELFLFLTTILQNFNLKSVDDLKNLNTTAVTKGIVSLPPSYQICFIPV
Kind of data set: CYP inhibition, 2C8. Type of data set: in vitro ADME. To be noted: most potently inhibited CYP isoform.

Data set [1] is described as follows: Human liver microsome intrinsic clearance. Format: in vitro ADME. To be noted: apparent intrinsic clearance, scaled.
For data set [2], the system named is pAKT-S473 in PC-3 cells (TORC2). Put plainly: Cellular p-AKT (ser473) AlphaScreen assay in PC-3 cells (TORC2 activity). Format: cell-based, human. The procedure:
The target product profile for 1 and the next-generation analogs described here was for a dual inhibitor against both TORC1 and TORC2.
FRAP1 (mTOR) recombinant protein and GFP-4E-BP1 were purchased from Invitrogen (Carlsbad, CA, US).
The kinase activity assay was conducted in 50 mM Hepes buffer containing 10 mM MgCl2, 0.01% Brij, 0.2 mM EDTA, 2 mM DTT and 1% DMSO (after compound addition) at pH 7.3.
The IC50 value for each compound was determined in the presence of compound (various concentrations, from 0 to 10 μM) and a fixed amount of ATP (50 μM, final concentration), substrate GFP-4E-BP1 (400 nM, final concentration). The enzymatic reaction was initiated by adding FRAP1 (mTOR) (2 nM, final concentration). The assay was conducted at room temperature (~22 °C). After 30 min, the enzymatic reaction was stopped using Tb-anti-p4E-BP1 (2 nM final concentration, Invitrogen) and EDTA (20 mM final concentration, Sigma) in TR-FRET dilution buffer provided by Invitrogen. All the reagents were dispensed using a Multidrop Combi reagent dispenser (ThermoFisher Scientific, Waltham, […]
The release of product was detected using a BMG PHERAstar plate reader (BMG LABTECH, Ortenberg, Germany) and the Lantha Screen module (337 nm excitation wavelength) and measuring the ratio of fluorescence 520/490 nm (emission wavelengths). Experimental data was fitted using Eq. (1):
Vi and Vo are the rates of the enzyme activity in the presence and in the absence of inhibitor; n is the Hill coefficient; I is the free inhibitor concentration; IC 50 is a measure of potency that is equivalent to a […]
Cellular p-AKT (ser473) assay in PC-3 cells
PC-3 cells (PTEN deleted, human prostate cell line) were maintained in F12K media with 10% heat-inactivated fetal bovine serum (FBS) in 37 °C, 5% CO2 incubator. This method describes the procedure […]
from Perkin Elmer (catalog# TGRAS500). On day 1, 50,000 PC-3 cells were plated in 160 µL complete […]
Plates were placed in 37 °C, 5%
CO2 incubator for 24 h. On day 2, all media was removed and replaced with 160 µL starvation media which is F12K media (no FBS) and 0.1% BSA. Plates are placed in 37 °C, 5% CO2 incubator for 16 h. On day 3, compounds were both solubilized and serially diluted in DMSO and added to a secondary plate containing starvation media. 40 µL of compound/starvation media were added to the 160 µL in cell plate and plates were placed back in the incubator for 1 h. Cells were then activated by adding 22 µL FBS (for a final concentration of 10% FBS) for 10 min in the incubator. Media was removed from the well and cells were lysed in 100 µL SureFire kit lysis buffer and then shake n for 15 min at 900 rpm. AlphaScreen […]
assay was performed according to manufacturer’s instructions. 4 µL of lysate was added to PerkinElmer 96-well Proxiplate then 5 µL of Reaction Buffer plus Activation Buffer. Plates were shaken for 2 h at room temperature. 2 µL of Donor Beads in Dilution Buffer were added to the plate and the plate was shaken for 2 h at room temperature. The plate was read using BMG Labtech PHERAstar using AlphaScreen settings. Each analog was run in duplicate wells and a single IC50 value was calculated in […]

The test system of a further data set is PI3Kα. Kind of data set: PI3Kα enzyme selectivity (PI3Kα IC50 over mTOR IC50). Type of data set: biochemical. As to conditions: ratio of PI3Kα enzyme IC50 over mTOR enzyme IC50.
Another data set can be described thus: Rat PK (iv and po). Format: in vivo. To be noted: for bioavailability: in vivo, 4 mg/kg; for bioavailability / Cl / Vd: iv 1 mpk; for bioavailability / Cmax: po 4 mpk in 0.5% methylcellulose; for frac. abs.: estimated from %F, Cl and Qh = 70 mL min^–1 kg^–1. The text has this: This was an early indication that the strategy of increasing potency while lowering lipophilicity would allow us to meet our goal of improving prospects for favorable PK and dose.

Data set [3] has as its system CYP 2C8, 1A2, 2C9, 2C19, 2D6 and 3A4. Put plainly: CYP inhibition, all isoforms tested. Type of data set: in vitro ADME. To be noted: human. An excerpt: We also desired to remove the aniline structural alert present in the aryl urea moiety, which has been associated with idiosyncratic adverse drug reactions.[16]
The target of a further data set is CYP-2C9 (Homo sapiens, UniProt P11712). Kind of data set: CYP inhibition, 2C9. As to conditions: most potently inhibited isoform was CYP-2C9. Format: in vitro ADME. An excerpt: Table 3 New Combinations from Free–Wilson Analysis | column: CYP IC50/μM ^c
Chain of CYP-2C9 (P11712 whole entry, canonical isoform): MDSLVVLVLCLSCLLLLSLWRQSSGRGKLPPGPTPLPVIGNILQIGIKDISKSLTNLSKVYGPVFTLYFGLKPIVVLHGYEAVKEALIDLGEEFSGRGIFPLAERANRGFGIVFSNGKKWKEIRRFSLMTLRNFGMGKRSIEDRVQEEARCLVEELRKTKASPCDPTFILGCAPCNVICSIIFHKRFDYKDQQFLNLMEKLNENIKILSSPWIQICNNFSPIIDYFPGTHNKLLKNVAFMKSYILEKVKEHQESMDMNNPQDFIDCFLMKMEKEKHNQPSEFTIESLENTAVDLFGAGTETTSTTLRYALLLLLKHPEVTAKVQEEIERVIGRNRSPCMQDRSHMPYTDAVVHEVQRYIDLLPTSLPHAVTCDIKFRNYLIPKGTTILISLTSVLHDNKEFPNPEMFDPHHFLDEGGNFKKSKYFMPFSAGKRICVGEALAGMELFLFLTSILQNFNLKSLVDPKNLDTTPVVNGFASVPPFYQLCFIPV
Setting [4] is: Homo sapiens, PC-3, PC-3 cell line, read-out: pAKT S473 Cell IC50.
[5] abbreviates: Homo sapiens, p-AKT S473, PC-3 cells, mean of N runs, read-out: Cell pEC50 (converted).

In the case of `Cc1cccc2c(-c3ncc4c(n3)N3CCOC[C@@]3(C)C(=O)N4[C@H]3CC[C@H](O)CC3)c[nH]c12` [15b], 3000 nM corresponded to half-maximal inhibition on CYP2C8 (IC50). Also, the “HLM Clint” value in data set [1] was found to be 7 mL min^–1 kg^–1.
On to `Cc1cccc2c(-c3ncc4c(n3)N3CCOC[C@@]3(C)C(=O)N4C3(CCO)CC3)c[nH]c12` [15e], for which the EC50 in data set [2] (Homo sapiens, PC-3, read-out: Cell pEC50 (converted)) was 4.57 nM. Besides, the IC50 in data set [2] (Homo sapiens, PC-3, read-out: pAKT S473 Cell IC50, PC-3 cell line) turned out to be 5 nM; on CYP2C8, 1300 nM. The “HLM Clint” value in data set [1] is given as 6 mL min^–1 kg^–1.
As to `Cc1cccc2c(-c3ncc4c(n3)N3CCOC[C@@]3(C)C(=O)N4C3CCOCC3)c[nH]c12` [4i], the values for the IC50 (in data set [2] (setting [4]); against CYP2C8) were 9 nM and 1000 nM, respectively. Besides, the EC50 in data set [2] (setting [5]) is 8.71 nM. Besides, in the data set on PI3Kα, the “PI3Kα Sel” value is recorded as 640x.
Take `Cc1ccc(-c2ncc3c(n2)N2CCOC[C@@]2(C)C(=O)N3[C@H]2CC[C@@H](O)CC2)c2cc[nH]c12` [15c]: inhibition on CYP2C8 was half-maximal at 3000 nM (IC50). For the same compound, the “HLM Clint” value in data set [1] is given as 8 mL min^–1 kg^–1.
Regarding `C[C@@]12COCCN1c1nc(-c3cccc4[nH]ccc34)ncc1N(C1CCOCC1)C2=O` [4e], the IC50 is at most 30 nM in data set [2] (setting [4]); 21 nM in data set [2] (PC-3 cell line, read-out: pAKT S473 Cell IC50); over 40 µM in data set [3]. Besides, in data set [2] (setting [5]), the EC50 was 21.4 nM. In “Rat PK (iv and po)”, this compound displayed a bioavailability of 91%. The compound also returned a Cl in the data set “Rat PK (iv and po)” of 15 mL min^–1 kg^–1. Besides, the “PI3Kα Sel” value is 110x with PI3Kα and 110 in the data set on PI3Kα (Table 2, unit not given). Further, in data set [1], the “HLM Clint” value is listed as 10 mL min^–1 kg^–1.
Compound `Cc1cccc2c(-c3ncc4c(n3)N3CCOC[C@@]3(C)C(=O)N4[C@H]3CC[C@@H](O)CC3)c[nH]c12` [15d] had an IC50 against CYP2C8 of 800 nM. In addition, the “HLM Clint” value in data set [1] is 7 mL min^–1 kg^–1.
With `Cc1ccc(-c2ncc3c(n2)N2CCOC[C@@]2(C)C(=O)N3[C@H]2CC[C@H](O)CC2)c2cc[nH]c12` [15a], in “Rat PK (iv and po)”, the frac. abs. was 41%, the bioavailability came to 35%, the Cl is 10 mL min^–1 kg^–1 and the Vd is 1.6 L/kg. In “Rat PK (iv and po)”, this compound gave a Cmax of 570 nM. The IC50 at CYP-2C9 worked out at 5 µM. Also, in data set [1], the “HLM Clint” value is reported as 6 mL min^–1 kg^–1.
`C[C@@]12COCCN1c1nc(-c3cccc4[nH]ccc34)ncc1N([C@H]1CC[C@@H](O)CC1)C2=O` [14b]: the IC50 in data set [2] (setting [4]) came out at 14 nM. For the same compound, the EC50 in data set [2] (setting [5]) was 14.1 nM. Besides, in “Rat PK (iv and po)”, the frac. abs. is reported as 100%, the bioavailability turned out to be 100%, the Cl was 11 mL min^–1 kg^–1 and the Vd was 3.9 L/kg. Also, the peak level in the data set “Rat PK (iv and po)” (Cmax) was 1400 nM. Besides, the PI3Ka sel. in the data set with PI3Kα was found to be 110 ×. For the same compound, the “PI3Kα Sel” value in the data set with PI3Kα (Table 2, unit not given) is reported as 110. Also, the IC50 on CYP2C8 is 4000 nM. In addition, the “HLM Clint” value in data set [1] is 6 mL min^–1 kg^–1.

Source of the values: PMC10641921, “Optimization of mTOR Inhibitors Using Property-Based Drug Design and Free–Wilson Analysis for Improved In Vivo Efficacy” (ACS Medicinal Chemistry Letters, 2023).
